Source: US9149038B2, “4-amino-6-(heterocyclic)picolinates and 6-amino-2-(heterocyclic)pyrimidine-4-carboxylates and their use as herbicides” (Dow AgroSciences LLC, priority 2013, dated 2015)
Read-outs that look alike come from different tables or passages of the source.

How the values were obtained:
[1] = test system: Key Grass and Sedge Weeds as well as Grass Crops; experiment: Post-Emergent Test II: postemergent herbicidal activity, visual rating after 14 d (Table 8); assay type: in vivo; settings: post-emergence, 336 h; for pest or weed control at 35 g/ha: 35 g ai/ha; for pest or weed control at 70 g/ha: 70 g ai/ha; for pest or weed control at 140 g/ha: 140 g ai/ha
Summary of the method: (§1)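 Visual scoring at 14 d, 0 (no injury) to 100 (complete kill), relative to untreated plants. Postemergent overhead track-sprayer application, 187 L/ha, at a top rate plus serial ½×–1/16× rates, to plants grown 7–21 d at about 23–29° C day under a 15 h photoperiod, then subirrigated.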

[2] = test system: Key Broadleaf Weed and Crop Species; experiment: Post-Emergent Test II: postemergent herbicidal activity, visual rating after 14 d (Table 7); assay type: in vivo; settings: post-emergence, 336 h; for pest or weed control at 35 g/ha: 35 g ai/ha; for pest or weed control at 70 g/ha: 70 g ai/ha; for pest or weed control at 140 g/ha: 140 g ai/ha
Summary of the method: as §1

[3] = barnyardgrass (Echinochloa crus-galli), read-out: Visual Growth Reduction (%) 14 Days After Application ECHCG
[4] = giant foxtail (Setaria faberi), read-out: Visual Growth Reduction (%) 14 Days After Application SETFA
[5] = maize, corn (Zea mays), read-out: Visual Growth Reduction (%) 14 Days After Application ZEAMX
[6] = rice (Oryza sativa), read-out: Visual Growth Reduction (%) 14 Days After Application ORYSA
[7] = wheat, spring (Triticum aestivum), read-out: Visual Growth Reduction (%) 14 Days After Application TRZAS
[8] = yellow nutsedge (Cyperus esculentus), read-out: Visual Growth Reduction (%) 14 Days After Application CYPES
[9] = lambsquarters (Chenopodium album), read-out: Visual Growth Reduction (%) 14 Days After Application CHEAL
[10] = oilseed rape, canola (Brassica napus), read-out: Visual Growth Reduction (%) 14 Days After Application BRSNN
[11] = redroot pigweed (Amaranthus retroflexus), read-out: Visual Growth Reduction (%) 14 Days After Application AMARE
[12] = sunflower (Helianthus annuus), read-out: Visual Growth Reduction (%) 14 Days After Application HELAN
[13] = velvetleaf (Abutilon theophrasti), read-out: Visual Growth Reduction (%) 14 Days After Application ABUTH
[14] = wild poinsettia (Euphorbia heterophylla), read-out: Visual Growth Reduction (%) 14 Days After Application EPHHL

COC(=O)c1nc(-c2ccc3c(c2C)OC(F)(F)O3)cc(N)c1Cl [Compound 35]
85 to 94%: pest or weed control at 140 g/ha [2, 9] | pest or weed control at 35 g/ha [2, 11] | pest or weed control at 70 g/ha [2, 12]
95 to 100%: pest or weed control at 140 g/ha [1, 8] | pest or weed control at 70 g/ha [2, 11] | pest or weed control at 140 g/ha [2, 11] | pest or weed control at 140 g/ha [2, 12]
75 to 84%: pest or weed control at 70 g/ha [2, 13] | pest or weed control at 140 g/ha [2, 13]
45 to 59%: pest or weed control at 70 g/ha [2, 10]
30 to 44%: pest or weed control at 140 g/ha [1, 5] | pest or weed control at 70 g/ha [1, 8] | pest or weed control at 35 g/ha [2, 10]
0 to 29%: pest or weed control at 35 g/ha [1, 3] | pest or weed control at 70 g/ha [1, 3] | pest or weed control at 140 g/ha [1, 3] | pest or weed control at 35 g/ha [1, 4] | pest or weed control at 70 g/ha [1, 4] | pest or weed control at 140 g/ha [1, 4] | pest or weed control at 35 g/ha [1, 5] | pest or weed control at 70 g/ha [1, 5] | pest or weed control at 35 g/ha [1, 6] | pest or weed control at 70 g/ha [1, 6] | pest or weed control at 140 g/ha [1, 6] | pest or weed control at 35 g/ha [1, 7] | pest or weed control at 70 g/ha [1, 7] | pest or weed control at 140 g/ha [1, 7] | pest or weed control at 35 g/ha [1, 8] | pest or weed control at 35 g/ha [2, 9] | pest or weed control at 35 g/ha [2, 13] | pest or weed control at 35 g/ha [2, 14] | pest or weed control at 70 g/ha [2, 14] | pest or weed control at 140 g/ha [2, 14]
60 to 74%: pest or weed control at 70 g/ha [2, 9] | pest or weed control at 140 g/ha [2, 10] | pest or weed control at 35 g/ha [2, 12]

COC(=O)c1nc(-c2ccc(F)c3c2OC(F)(F)O3)c(F)c(N)c1Cl [Compound 76]
60 to 74%: pest or weed control at 140 g/ha [1, 7] | pest or weed control at 35 g/ha [2, 10] | pest or weed control at 35 g/ha [2, 13]
30 to 44%: pest or weed control at 35 g/ha [1, 7] | pest or weed control at 70 g/ha [1, 8] | pest or weed control at 140 g/ha [1, 8]
75 to 84%: pest or weed control at 70 g/ha [2, 10] | pest or weed control at 70 g/ha [2, 13]
45 to 59%: pest or weed control at 70 g/ha [1, 7]
0 to 29%: pest or weed control at 35 g/ha [1, 3] | pest or weed control at 70 g/ha [1, 3] | pest or weed control at 140 g/ha [1, 3] | pest or weed control at 35 g/ha [1, 4] | pest or weed control at 70 g/ha [1, 4] | pest or weed control at 140 g/ha [1, 4] | pest or weed control at 35 g/ha [1, 5] | pest or weed control at 70 g/ha [1, 5] | pest or weed control at 140 g/ha [1, 5] | pest or weed control at 35 g/ha [1, 6] | pest or weed control at 70 g/ha [1, 6] | pest or weed control at 140 g/ha [1, 6] | pest or weed control at 35 g/ha [1, 8] | pest or weed control at 35 g/ha [2, 14] | pest or weed control at 70 g/ha [2, 14] | pest or weed control at 140 g/ha [2, 14]
85 to 94%: pest or weed control at 35 g/ha [2, 9] | pest or weed control at 70 g/ha [2, 9] | pest or weed control at 140 g/ha [2, 10] | pest or weed control at 35 g/ha [2, 12] | pest or weed control at 70 g/ha [2, 12] | pest or weed control at 140 g/ha [2, 12] | pest or weed control at 140 g/ha [2, 13]
95 to 100%: pest or weed control at 140 g/ha [2, 9] | pest or weed control at 35 g/ha [2, 11] | pest or weed control at 70 g/ha [2, 11] | pest or weed control at 140 g/ha [2, 11]
